The values that follow come from patent EP4321162A1 (priority 2022, dated 2024).

One data set concerns SARS-CoV-2. Also noted: species or system K18-hACE2 mice. The following applies: mouse, in vivo.
In another data set the test system is Calu-3 2B4 cells. The note with it: uninfected Calu-3 2B4 cells, 1-50 µM tested, 48 h.

On to `CC(C)(C)c1cc(C(C)(C)C)c(NC(=O)c2c[nH]c3ccccc3c2=O)cc1O` [VX770, N-(2,4-ditert-butyl-5-hydroxyphenyl)-4-oxo-1H-quinoline-3-carboxamide], for which the “protection levels (survival)” value in the data set with SARS-CoV-2 came to 40%. In addition, the “cytotoxicity of the administered concentrations (cell viability, MTT)” value with Calu-3 2B4 cells is recorded as “non-toxic”.
For `Cc1ccc(NC(=O)C2(c3ccc4c(c3)OC(F)(F)O4)CC2)nc1-c1cccc(C(=O)O)c1` [VX809, 3-[6-[[1-(2,2-difluoro-1,3-benzodioxol-5-yl)cyclopropanecarbonyl]amino]-3-methylpyridin-2-yl]benzoic acid], in that order: 20% and “non-toxic”.
